In US20260097083A1, “METHOD FOR PRODUCING PANCREATIC ENDODERM CELLS” (Kyoto University, priority 2022, published 2026):
Structures can show the parent of a compound that is named as a salt.

Columns and labels:
[1] = system: NKX6.1-positive pancreatic endoderm cells derived from human iPS cells; assay: Screening of senescence-related reagents; format: cell-based
Method: FIG. 2-A A schematic diagram illustrating senescence-related reagent screening. […] After the elapse of one week, the cells were counted under a fluorescence microscope. Cells were differentiated to a pancreatic endoderm cell level using a stepwise differentiation-inducing method, and were then re-seeded on a 24-well plate at 2×10^5/well. The following culture media were added to these cultured cells, and the cells were cultured for 1 week. […] After fixed using 4% PFA, the cells were subjected to β-gal staining and NKX6.1 antibody immunostaining, and fluorescently stained images were acquired using BZ-800 (Keyence). The number of NKX6.1-positive cells, the NKX6.1-positive ratio, and the β-gal-positive ratio were calculated using the BZ-[…]/Macro Cell Count function of that microscope. FIGS. 2-A and 3-A show the outline of this procedure. A reagent enabling proliferation of pancreatic endoderm cells derived from human iPS cells was searched for in the senescence-related reagents. […] Then, (1) the number of NKX6.1-positive cells, or (2) the ratio of NKX6.1-positive cells and the ratio of β gal-positive cells were measured after the culture. FIGS. 2-B to 2-D show the results.

[2] = system: pancreatic endoderm cells (NKX6.1-positive); conditions: added to medium containing Y-27632 50 μM, 6 days, FIG. 7
Method: The cells on Day 21 of expansion culture were cultured for 6 days using a culture medium obtained by adding various growth factors and small-molecule compounds to a culture medium for expansion culture containing Y-27632. The other conditions were the same as those of the screening of senescence-related reagents.
After passaged three times using a culture medium to which Y-27632 (50 μM) had been added, pancreatic endoderm cells were seeded on a 24-well plate coated with iMatrix at 2.0×10^5 cells/well. Each of screening reagents was added to the culture medium containing Y-27632 (50 μM), and then the cells were cultured. After 6 days, the ratio of NKX6.1-positive cells was checked through cell immunostaining.

[3] = system: PDX1+/NKX6.1+ pancreatic endoderm cells derived from human iPS cells; assay: Examination of other ROCK inhibitors for proliferating pancreatic endoderm cells; format: cell-based; conditions: 1 week, FIGS. 3-B and 3-C
Method: FIG. 3-A A schematic diagram illustrating an experiment of examining other ROCK inhibitors. […] After the elapse of one week, the cells were counted under a fluorescence microscope.
Cells were differentiated to a pancreatic endoderm cell level using a stepwise differentiation-inducing method, and were then re-seeded on a 24-well plate at 2×10^5/well. The following culture media were added to these cultured cells, and the cells were cultured for 1 week. The culture medium for the Control group was improved MEM to which 0.5×B-27 Supplement, 100 U/ml penicillin/streptomycin, 100 ng/ml KGF/FGF7, 50 ng/ml EGF, and 10 mM nicotinamide had been added. […] After fixed using 4% PFA, the cells were subjected to β-gal staining and NKX6.1 antibody immunostaining, and fluorescently stained images were acquired using BZ-800 (Keyence). The number of NKX6.1-positive cells, the NKX6.1-positive ratio, and the β-gal-positive ratio were calculated using the BZ-H4CM/Macro Cell Count function of that microscope. FIGS. 2-A and 3-A show the outline of this procedure.
The experiments were conducted in the same manner as in Example 1. FIGS. 3-B and 3-C show the results.

Compound: CC1(C)CCC(c2ccc(Cl)cc2)=C(CN2CCN(c3ccc(C(=O)NS(=O)(=O)c4ccc(N[C@H](CCN5CCOCC5)CSc5ccccc5)c(S(=O)(=O)C(F)(F)F)c4)cc3)CC2)C1 [ABT263]
- ratio of β gal-positive cells (senescent cells) ([1]; 1 week, FIG. 2-D): reduction in the ratio of β gal-positive cells
- cause inferred for the reduction in β gal-positive ratio ([1]; inferred from FIG. 2-B and 2-D): toxicity

Compound: Cc1cccc(-c2n[nH]cc2-c2ccc3ncccc3n2)n1 [ALK5 inhibitor, 2-[3-[6-methylpyridin-2-yl]-1H-pyrazol-4-yl]-1,5-naphthyridine]
- ratio of NKX6.1-positive cells (screening outcome) [2]: identified as candidates for a factor for improving expansion culture

Compound: O=S(=O)(c1cccc2cnccc12)N1CCCNCC1 [Fasudil hydrochloride]
- effect of proliferating pancreatic endoderm cells (total cells, NKX6.1-positive cells) [3]: exhibited the effect of proliferating pancreatic endoderm cells

Compound: CCn1c(-c2nonc2N)nc2cnc(Oc3cccc(NC(=O)c4ccc(OCCN5CCOCC5)cc4)c3)cc21 [GSK269962]
- effect of proliferating pancreatic endoderm cells (total cells, NKX6.1-positive cells) [3]: exhibited the effect of proliferating pancreatic endoderm cells

Compound: CC1=C(C(=O)Nc2cc3cn[nH]c3cc2F)C(c2ccc(C(F)(F)F)cc2)CC(=O)N1 (centres unmarked) [GSK429286A]
- effect of proliferating pancreatic endoderm cells (total cells, NKX6.1-positive cells) [3]: exhibited the effect of proliferating pancreatic endoderm cells

Compound: Cc1cncc2cccc(S(=O)(=O)N3CCCNC[C@@H]3C)c12 [H1152]
- effect of proliferating pancreatic endoderm cells (total cells, NKX6.1-positive cells) [3]: exhibited the effect of proliferating pancreatic endoderm cells

Compound: O=C(NCc1ccccc1)c1csc(Nc2ccncn2)n1 [Thiazovivin]
- effect of proliferating pancreatic endoderm cells (total cells, NKX6.1-positive cells) [3]: exhibited the effect of proliferating pancreatic endoderm cells
